Test results: BindingDB's records for doi:10.7270/Q2Z31X2S (Nmmlsc, 2009)

Target: Cell division control protein 42 homolog (Homo sapiens, UniProt P60953)
Test: wild-type Cdc42 GTP-binding inhibitors, SAR follow-up, biochemical, bead-based multiplex flow cytometry, additional SAR set (AID 2022)
Details: not given

Sequence of Cell division control protein 42 homolog (P60953 whole entry): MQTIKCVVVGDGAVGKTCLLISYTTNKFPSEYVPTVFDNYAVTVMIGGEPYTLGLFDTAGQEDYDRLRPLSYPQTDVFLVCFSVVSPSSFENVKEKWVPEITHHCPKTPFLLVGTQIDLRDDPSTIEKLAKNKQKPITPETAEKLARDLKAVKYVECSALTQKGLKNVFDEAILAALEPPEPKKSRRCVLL

**Q.** With `O=C(C#Cc1ccccc1)c1ccc(OC(F)(F)F)cc1` as the compound, how does the EC50 read?
**A.** > 30 µM

**Q.** How did the EC50 turn out when `COC(=O)c1ccc(C(=O)C#Cc2ccccc2)cc1` [4-(1-oxo-3-phenylprop-2-ynyl)benzoic acid methyl ester] was run?
**A.** > 30 µM

**Q.** How did the EC50 turn out when `O=C(C#Cc1ccccc1)c1cccnc1` [3-phenyl-1-pyridin-3-ylprop-2-yn-1-one] was run?
**A.** > 30 µM

**Q.** With `O=C1N=c2c(F)cccc2=C1c1[nH]c2ccccc2c1NO` [7-fluoro-3-[3-(hydroxyamino)-1H-indol-2-yl]-2-indolone] as the compound, how does the EC50 read?
**A.** 28.1 µM

**Q.** Which EC50 does the source give for `N#Cc1ccc(C(=O)C#Cc2ccccc2)cc1` [4-(3-phenylprop-2-ynoyl)benzenecarbonitrile] here?
**A.** > 30 µM

**Q.** Which EC50 does the source give for `O=C1N=c2c(Br)cccc2=C1c1[nH]c2ccccc2c1NO` [7-bromanyl-3-[3-(oxidanylamino)-1H-indol-2-yl]indol-2-one] here?
**A.** > 30 µM

**Q.** How did the EC50 turn out when `O=C1N=c2c(Cl)cccc2=C1c1[nH]c2ccccc2c1NO` [7-chloro-3-[3-(hydroxyamino)-1H-indol-2-yl]-2-indolone] was run?
**A.** > 30 µM

**Q.** How did the EC50 turn out when `COc1ccc(S(=O)(=O)n2c(N)c(C#N)c(-c3cncc(Br)c3)c2C(=O)c2ccccc2)cc1` [2-amino-5-benzoyl-4-(5-bromo-3-pyridinyl)-1-(4-methoxyphenyl)sulfonyl-3-pyrrolecarbonitrile] was run?
**A.** 22.8 µM

**Q.** Which EC50 does the source give for `O=C1Nc2c(F)cccc2C1=C1Nc2ccccc2C1=O` here?
**A.** > 30 µM

**Q.** How did the EC50 turn out when `O=C1N=c2ccccc2=C1c1[nH]c2ccccc2c1NO` [3-[3-(hydroxyamino)-1H-indol-2-yl]-2-indolone] was run?
**A.** > 30 µM

**Q.** How did the EC50 turn out when `COc1ccc(S(=O)(=O)n2c(N)c(C#N)c(-c3ccccc3)c2C(=O)c2ccc(Br)cc2)cc1` was run?
**A.** > 30 µM

**Q.** `COc1ccc2cc(CC(=O)O)ccc2c1` [2-(6-methoxynaphthalen-2-yl)ethanoic acid] was tested. Which EC50 did it give?
**A.** > 30 µM

**Q.** Which EC50 does the source give for `O=[N+]([O-])c1ccc(C#Cc2ccccc2)cc1` here?
**A.** > 30 µM

**Q.** How did the EC50 turn out when `CC1=C(CC(=O)O)c2cc(F)ccc2/C1=C/c1ccc([S+](C)[O-])cc1` (stereo not given) [UNM-0000306136] was run?
**A.** > 30 µM

**Q.** `COc1ccc(C(=O)C#Cc2ccccc2)cc1` [1-(4-methoxyphenyl)-3-phenyl-2-propyn-1-one] was tested. Which EC50 did it give?
**A.** > 30 µM

**Q.** `O=C1Nc2c(Br)cccc2C1=C1Nc2ccccc2C1=O` was tested. Which EC50 did it give?
**A.** > 30 µM

**Q.** For `CCCCS(=O)(=O)n1c(N)c(C#N)c(-c2cc(OC)c(OC)c(OC)c2)c1C(=O)c1ccccc1` [2-amino-5-benzoyl-1-butylsulfonyl-4-(3,4,5-trimethoxyphenyl)-3-pyrrolecarbonitrile], which EC50 is on record?
**A.** > 30 µM

**Q.** `O=C1NC(=O)/C(=C2/C(=O)Nc3ccccc32)N1` was tested. Which EC50 did it give?
**A.** > 30 µM

**Q.** Which EC50 does the source give for `O=C1NC(=S)N/C1=C1\C(=O)Nc2ccccc21` [(3Z)-3-(5-oxo-2-sulfanylideneimidazolidin-4-ylidene)-1H-indol-2-one] here?
**A.** > 30 µM

**Q.** With `O=C1Nc2c(Cl)cccc2C1=C1Nc2ccccc2C1=O` as the compound, how does the EC50 read?
**A.** 0.027 µM

**Q.** How did the EC50 turn out when `COc1ccc(S(=O)(=O)n2c(N)c(C#N)c(-c3cc(Br)c(OC)c(OC)c3)c2C(=O)c2ccccc2)cc1` [UNM-0000305782] was run?
**A.** > 30 µM

**Q.** For `O=C1N=c2ccc(Br)cc2=C1c1[nH]c2ccccc2c1NO` [5-bromanyl-3-[3-(oxidanylamino)-1H-indol-2-yl]indol-2-one], which EC50 is on record?
**A.** > 30 µM

**Q.** For `O=C(C#Cc1ccccc1)c1ccc([N+](=O)[O-])cc1` [1-(4-nitrophenyl)-3-phenyl-2-propyn-1-one], which EC50 is on record?
**A.** > 30 µM

**Q.** `O=C1Nc2ccccc2/C1=C1/Nc2ccccc2C1=O` [2-[(3Z)-2-oxo-2,3-dihydro-1H-indol-3-ylidene]-2,3-dihydro-1H-indol-3-one] was tested. Which EC50 did it give?
**A.** > 30 µM

**Q.** With `CC(C(=O)O)c1cccc(C(=O)c2ccccc2)c1` (stereo not given) [2-(3-benzoylphenyl)propanoic acid] as the compound, how does the EC50 read?
**A.** > 30 µM

**Q.** How did the EC50 turn out when `O=C(C#Cc1ccccc1)c1ccc(Cl)cc1` [UNM-0000306055] was run?
**A.** > 30 µM

**Q.** How did the EC50 turn out when `O=C(C#Cc1ccccc1)c1ccccc1[N+](=O)[O-]` [UNM-0000306038] was run?
**A.** > 30 µM

**Q.** Which EC50 does the source give for `O=C1Nc2ccccc2/C1=C1/Cc2ccccc2C1=O` [UNM-0000305763] here?
**A.** > 30 µM

**Q.** With `CC(=O)Oc1ccccc1C(=O)O` [2-(acetyloxy)benzoic acid] as the compound, how does the EC50 read?
**A.** > 30 µM

**Q.** Which EC50 does the source give for `O=C(C#Cc1ccccc1)c1ccccc1` [UNM-0000306039] here?
**A.** > 30 µM

**Q.** How did the EC50 turn out when `O=C(C#Cc1ccccc1)c1ccc(F)cc1` [UNM-0000306059] was run?
**A.** > 30 µM

**Q.** Which EC50 does the source give for `C[C@@H](C(=O)O)c1cccc(Oc2ccccc2)c1` [calcium;2-(3-phenoxyphenyl)propanoic acid;hydrate] here?
**A.** > 30 µM

**Q.** `O=C1Nc2cccc(Br)c2/C1=C1/Cc2ccccc2C1=O` was tested. Which EC50 did it give?
**A.** > 30 µM

**Q.** Which EC50 does the source give for `CSc1ccc(/C=C2/C(C)=C(CC(=O)O)c3cc(F)ccc32)cc1` [{6-Fluoro-2-methyl-3-[1-(4-methylsulfanyl-phenyl)-meth-(E)-ylidene]-3H-inden-1-yl}-acetic acid] here?
**A.** > 30 µM

**Q.** Which EC50 does the source give for `O=C1Nc2ccc(Br)cc2C1=C1Nc2ccccc2C1=O` here?
**A.** > 30 µM

**Q.** For `COc1cc(-c2c(C#N)c(N)n(S(=O)(=O)c3c(C(C)C)cc(C(C)C)cc3C(C)C)c2C(=O)c2ccccc2)cc(OC)c1OC` [2-azanyl-5-(phenylcarbonyl)-4-(3,4,5-trimethoxyphenyl)-1-[2,4,6-tri(propan-2-yl)phenyl]sulfonyl-pyrrole-3-carbonitrile], which EC50 is on record?
**A.** > 30 µM

**Q.** For `O=C1Nc2c(Br)cccc2/C1=C1/Cc2ccccc2C1=O` [(3E)-7-bromo-3-(3-oxo-1H-inden-2-ylidene)-1H-indol-2-one], which EC50 is on record?
**A.** > 30 µM

Same assay, conditions: inactive by the depositor's call

**Q.** How did the EC50 turn out when `COc1ccc(-c2c(C#N)c(N)n(S(C)(=O)=O)c2C(=O)c2ccccc2)cc1Br` [2-azanyl-4-(3-bromanyl-4-methoxy-phenyl)-1-methylsulfonyl-5-(phenylcarbonyl)pyrrole-3-carbonitrile] was run?
**A.** 11.2 µM

**Q.** `N#Cc1c(-c2ccc(Cl)cc2)c(C(=O)c2ccccc2)n(S(=O)(=O)c2ccc([N+](=O)[O-])cc2)c1N` [UNM-0000305780] was tested. Which EC50 did it give?
**A.** 7.21 µM

**Q.** `CC(C)Cc1ccc([C@H](C)C(=O)O)cc1` [(S)-2-(4-Isobutyl-phenyl)-propionic acid] was tested. Which EC50 did it give?
**A.** 16.6 µM
